Values joined by “and” are separate entries in the source; they are usually repeats but may differ in a detail not shown here. Identical values can stand only once.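 Test compounds were applied to cells in 96-well plates for 48 hours at 5 doses. GI50 is the concentration that inhibits growth by half. Definition used: TGI = concentration required for complete inhibition of growth.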
What was measured:
Assay in all cases: growth of human tumour cells (NCI), 48 h
[1] = test system: 786-0 renal
[2] = test system: A549 NSCLC
[3] = test system: ACHN renal
[4] = test system: BT-549 breast
[5] = test system: CAKI-1 renal
[6] = test system: COLO 205 colon
[7] = test system: DU-145 prostate
[8] = test system: EKVX NSCLC
[9] = test system: HCT-116 colon
[10] = test system: HCT-15 colon
[11] = test system: HL-60(TB) leukemia
[12] = test system: HOP-62 NSCLC
[13] = test system: HS 578T breast
[14] = test system: HT29 colon
[15] = test system: IGROV1 ovarian
[16] = test system: K-562 leukemia
[17] = test system: KM12 colon
[18] = test system: LOX IMVI melanoma
[19] = test system: M14 melanoma
[20] = test system: MALME-3M melanoma
[21] = test system: MCF7 breast
[22] = test system: MDA-MB-231 breast
[23] = test system: MDA-MB-435
[24] = test system: MOLT-4 leukemia
[25] = test system: NCI-H226 lung
[26] = test system: NCI-H23 lung
[27] = test system: NCI-H460 lung
[28] = test system: NCI-H522 lung
[29] = test system: NCI/ADR-RES ovarian
[30] = test system: OVCAR-3 ovarian
[31] = test system: OVCAR-5 ovarian
[32] = test system: OVCAR-8 ovarian
[33] = test system: PC-3 prostate
[34] = test system: RXF 393 renal
[35] = test system: SF-268 CNS
[36] = test system: SF-295 CNS
[37] = test system: SF-539 CNS
[38] = test system: SK-MEL-28 melanoma
[39] = test system: SK-MEL-5 melanoma
[40] = test system: SK-OV-3 ovarian
[41] = test system: SN12C renal
[42] = test system: SNB-19 CNS
[43] = test system: SNB-75 CNS
[44] = test system: SR leukemia
[45] = test system: SW-620 colon
[46] = test system: T-47D breast
[47] = test system: TK-10 renal
[48] = test system: U251 CNS
[49] = test system: UACC-257 melanoma
[50] = test system: UACC-62 melanoma
[51] = test system: UO-31 renal
[52] = test system: A498 renal
[53] = test system: CCRF-CEM leukemia
[54] = test system: HCC-2998 colon
[55] = test system: OVCAR-4 ovarian
[56] = test system: RPMI-8226 leukemia
[57] = test system: SK-MEL-2 melanoma
[58] = test system: HOP-92 NSCLC

`C/C(=C\CO)CC/C=C(\C)CNc1ccccc1` gave a TGI [1] of over 100 µM, a TGI [2] of over 100 µM and a TGI [3] of over 100 µM. For the same compound, the TGI [4] was 55.2 µM, the TGI [5] was over 100 µM and the TGI [6] was over 100 µM. It also gave a TGI [7] of over 100 µM, a TGI [8] of 93.7 µM and a TGI [9] of over 100 µM. For the same compound, the TGI [10] was over 100 µM, the TGI [11] was over 100 µM and the TGI [12] was over 100 µM. It also gave a TGI [13] of 97.8 µM, a TGI [14] of 47.9 µM and a TGI [15] of over 100 µM. For the same compound, the TGI [16] was over 100 µM, the TGI [17] was over 100 µM and the TGI [18] was over 100 µM. For the same compound, the TGI [19] was over 100 µM, the TGI [20] was 66.9 µM and the TGI [21] was over 100 µM. The TGI [22] was over 100 µM, the TGI [23] was over 100 µM and the TGI [24] was 25.7 µM. It also gave a TGI [25] of over 100 µM, a TGI [26] of 27.1 µM and a TGI [27] of over 100 µM. It also gave a TGI [28] of 98.5 µM, a TGI [29] of over 100 µM and a TGI [30] of over 100 µM. The TGI [31] was over 100 µM, the TGI [32] was over 100 µM and the TGI [33] was over 100 µM. The TGI [34] was over 100 µM, the TGI [35] was over 100 µM and the TGI [36] was over 100 µM. For the same compound, the TGI [37] was over 100 µM, the TGI [38] was over 100 µM and the TGI [39] was 34.1 µM. The TGI [40] was over 100 µM, the TGI [41] was over 100 µM and the TGI [42] was over 100 µM. It also gave a TGI [43] of 54.6 µM, a TGI [44] of 79.5 µM and a TGI [45] of over 100 µM. The TGI [46] was 81 µM, the TGI [47] was 65.4 µM and the TGI [48] was over 100 µM. The TGI [49] was 91.8 µM, the TGI [50] was over 100 µM and the TGI [51] was over 100 µM.
`COC(=O)C1=C(OC(=O)/C(=C/c2ccccc2)c2ccccc2)C(C(=O)OC)[C@@]2(O)[C@@H](C(=O)OC)[C@H](C)C[C@@H]1[C@@H]2C(=O)OC` (some centres undefined) showed a TGI [1] of over 100 µM, a TGI [52] of over 100 µM and a TGI [2] of over 100 µM. The TGI [3] was over 100 µM, the TGI [4] was over 100 µM and the TGI [5] was over 100 µM. For the same compound, the TGI [53] was over 100 µM, the TGI [6] was over 100 µM and the TGI [7] was over 100 µM. It also gave a TGI [8] of over 100 µM, a TGI [54] of over 100 µM and a TGI [9] of over 100 µM. It also gave a TGI [10] of over 100 µM, a TGI [11] of over 100 µM and a TGI [12] of over 100 µM. The TGI [13] was over 100 µM, the TGI [14] was over 100 µM and the TGI [15] was over 100 µM. For the same compound, the TGI [16] was over 100 µM, the TGI [17] was over 100 µM and the TGI [18] was over 100 µM. The TGI [19] was over 100 µM, the TGI [20] was over 100 µM and the TGI [21] was over 100 µM. For the same compound, the TGI [22] was over 100 µM, the TGI [23] was over 100 µM and the TGI [25] was over 100 µM. For the same compound, the TGI [26] was over 100 µM, the TGI [27] was over 100 µM and the TGI [28] was over 100 µM. It also gave a TGI [29] of over 100 µM, a TGI [30] of over 100 µM and a TGI [55] of over 100 µM. The TGI [31] was over 100 µM, the TGI [32] was over 100 µM and the TGI [33] was over 100 µM. For the same compound, the TGI [56] was over 100 µM, the TGI [34] was over 100 µM and the TGI [35] was over 100 µM. The TGI [36] was over 100 µM, the TGI [37] was over 100 µM and the TGI [57] was over 100 µM. It also gave a TGI [38] of over 100 µM, a TGI [39] of over 100 µM and a TGI [40] of over 100 µM. For the same compound, the TGI [41] was over 100 µM, the TGI [42] was over 100 µM and the TGI [43] was over 100 µM. It also gave a TGI [44] of over 100 µM, a TGI [45] of over 100 µM and a TGI [46] of over 100 µM. For the same compound, the TGI [47] was over 100 µM, the TGI [48] was over 100 µM and the TGI [49] was over 100 µM. It also gave a TGI [50] of over 100 µM and a TGI [51] of over 100 µM.
For `CCN(CC)CCNc1ccc(C)c2sc3ccccc3c(=O)c12` (tested in a mixture with another compound), the GI50 [1] was 1790 nM, the TGI [1] was 4.83 µM and 11.4 µM and the GI50 [52] was 1830 nM. For the same compound, the TGI [52] was 4.11 µM and 7.09 µM, the GI50 [2] was 1630 nM and the TGI [2] was 3.24 µM and 8.53 µM. The GI50 [3] was 2340 nM and 2200 nM, the TGI [3] was 5.47 µM and 5.97 µM and the GI50 [4] was 6.4 µM. For the same compound, the TGI [4] was 16.3 µM and 21.4 µM, the GI50 [5] was 1380 nM and 694 nM and the TGI [5] was 4.5 µM and 6.47 µM. The GI50 [53] was 2840 nM and 3050 nM, the TGI [53] was 8.82 µM and 10.6 µM and the TGI [6] was 3 µM and 3.1 µM. The GI50 [7] was 2580 nM and 3080 nM, the TGI [7] was 9.14 µM and 8.92 µM and the GI50 [8] was 5.1 µM and 4.96 µM. For the same compound, the TGI [8] was 19.7 µM and 19.5 µM, the GI50 [54] was 1550 nM and 1940 nM and the TGI [54] was 3.03 µM and 4.51 µM. The GI50 [9] was 1500 nM, the TGI [9] was 2.9 µM and 3.62 µM and the TGI [10] was 11.1 µM and 9.1 µM. For the same compound, the GI50 [11] was 2410 nM, the TGI [11] was 3.72 µM and 7.76 µM and the GI50 [12] was 1540 nM and 2070 nM. The TGI [12] was 3.12 µM and 5.88 µM, the GI50 [58] was 1340 nM and 1760 nM and the TGI [58] was 6.77 µM and 8.86 µM. The GI50 [13] was 1910 nM and 1780 nM, the TGI [13] was 4.75 µM and 5 µM and the TGI [14] was 3.79 µM. The GI50 [15] was 1540 nM and 2750 nM, the TGI [15] was 3.1 µM and 9.38 µM and the TGI [16] was 3.92 µM and 4.27 µM. For the same compound, the TGI [17] was 9.82 µM and 11.6 µM, the GI50 [18] was 1860 nM and 1700 nM and the TGI [18] was 3.88 µM and 3.81 µM. For the same compound, the TGI [19] was 3.05 µM and 3.14 µM, the GI50 [20] was 1650 nM and 1710 nM and the TGI [20] was 3.46 µM and 3.45 µM. For the same compound, the GI50 [21] was 1810 nM and 1750 nM, the TGI [21] was 3.85 µM and 3.73 µM and the GI50 [22] was 1720 nM and 1830 nM. For the same compound, the TGI [22] was 3.56 µM and 3.98 µM, the TGI [23] was 4.13 µM and 4.21 µM and the GI50 [24] was 2550 nM and 2570 nM. For the same compound, the TGI [24] was 6.33 µM and 6.48 µM, the GI50 [25] was 1620 nM and 2270 nM and the TGI [25] was 3.25 µM and 5.09 µM. For the same compound, the GI50 [26] was 2320 nM, the TGI [26] was 6.01 µM and 11.4 µM and the TGI [27] was 3.81 µM and 3.58 µM. The GI50 [28] was 3.34 µM, the TGI [28] was 13.3 µM and the GI50 [29] was 3.21 µM and 3.19 µM. For the same compound, the TGI [29] was 12.2 µM and 13.5 µM, the GI50 [30] was 2430 nM and the TGI [30] was 6.92 µM and 7.23 µM. For the same compound, the GI50 [55] was 3.91 µM, the TGI [55] was 13.6 µM and 17.3 µM and the GI50 [31] was 1800 nM and 2350 nM. For the same compound, the TGI [31] was 3.98 µM and 5.87 µM, the GI50 [32] was 6.63 µM and the TGI [32] was 76.9 µM. For the same compound, the GI50 [33] was 2770 nM, the TGI [33] was 6.63 µM and 12.4 µM and the TGI [56] was 4.49 µM and 4.35 µM. The TGI [34] was 5.16 µM, the GI50 [35] was 3.91 µM and 3.3 µM and the TGI [35] was 14.8 µM and 12.5 µM. The TGI [36] was 5.3 µM and 5.37 µM, the GI50 [37] was 1920 nM and 2250 nM and the TGI [37] was 4.06 µM and 5.45 µM. For the same compound, the TGI [57] was 8.28 µM, the TGI [38] was 3.3 µM and 3.27 µM and the GI50 [39] was 1540 nM and 1690 nM. For the same compound, the TGI [39] was 2.98 µM and 3.09 µM, the GI50 [40] was 2110 nM and 2910 nM and the TGI [40] was 5.63 µM and 9.21 µM. For the same compound, the GI50 [41] was 4.38 µM, the TGI [41] was 12.7 µM and 18 µM and the GI50 [42] was 3.95 µM. The TGI [42] was 11.4 µM and 15.7 µM, the TGI [43] was 4.6 µM and 6.21 µM and the TGI [45] was 3.46 µM and 3.72 µM. For the same compound, the GI50 [46] was 1750 nM and 2290 nM, the TGI [46] was 4.64 µM and 7.22 µM and the GI50 [47] was 2730 nM. For the same compound, the TGI [47] was 5.64 µM and 12.2 µM, the TGI [48] was 6.92 µM and 8.17 µM and the GI50 [49] was 2310 nM. For the same compound, the TGI [49] was 4.8 µM, the GI50 [50] was 1080 nM and the TGI [50] was 2.49 µM and 3.79 µM. For the same compound, the TGI [51] was 3.79 µM.

Reference: PubChem BioAssay (NCI)
